# Read-outs that look alike come from different tables or passages of the source.
# Columns and labels:
# [1] = cited from earlier work; for DPPH free-radical scavenging IC50: AOPs from skipjack tuna protein extract
# Description: The virtual screening method, employing peptide affinity for Keap1 as a screening parameter, exclusively confirms the capability of CP1 to activate the Keap1/Nrf2 pathway. On the other hand, the chromatographic method, utilizing the free-radical scavenging rate as a screening metric, solely validates the ability of CP2 to scavenge free radicals. […] The chemical method for evaluating AOP antioxidant activity can be categorized into two main types: hydrogen atom transfer and electron transfer. In assays such as hydroxyl and DPPH radical scavenging, AOP transforms free radicals into anions via electron transfer. Moreover, in the lipid peroxidation inhibition assay, AOP hinders lipid peroxidation by releasing hydrogen atoms, thereby deactivating free radicals.
# [2] = cited from earlier work
# Description: AOP antioxidant activity is primarily assessed through chemical and cell modeling methods. The chemical method for evaluating AOP antioxidant activity can be categorized into two main types: hydrogen atom transfer and electron transfer. In assays such as hydroxyl and DPPH radical scavenging, AOP transforms free radicals into anions via electron transfer. Moreover, in the lipid peroxidation inhibition assay, AOP hinders lipid peroxidation by releasing hydrogen atoms, thereby deactivating free radicals.
# RAW264.7 cells [3] = conditions: MTS; for cell survival rate: mean ± SD
# Protocol: RAW264.7 cells were cultured in a 5% CO2 environment at 37 °C using a specific complete medium (DMEM (PM150210) + 10% FBS (164210-50) + 1%P/S (PB180120)) designed for RAW264.7 cells. Cells in the logarithmic growth phase were harvested and seeded into 96-well plates at a density of 1 × 10^5 cells/mL per well with 100 μL of inoculation volume. Subsequently, the plates were pre-cultured for 12 h at 37 °C in a 5% CO2 atmosphere, following which the medium was removed.
# The pre-cultured RAW264.7 cells were then divided into control (C) and model (M) groups. Then, 100 μL of complete medium was added to group C, and 100 μL of complete medium containing concentrations of 250, 300, 350, 400, and 450 μmol/L H2O2 was added to group M. After continuing the incubation for 6 h, the medium was discarded. Cell viability was assessed using the MTS method. The optimal H2O2 concentration for inducing the oxidative stress model was determined when cell viability decreased to 50%, ensuring that the cells maintained a specific viability level while meeting the damage criteria.
# [4] = Antioxidant stability under simulated digestion; assay type: in vitro ADME; conditions: simulated GI (gastrointestinal) digestion versus G digestion; not significant (p > 0.05)
# Description: We refer to Chai et al. and Gallego et al. methods to evaluate the antioxidant stability of AOPs at different temperatures, pH levels, and simulated digestion conditions.
# RAW264.7 cells [5] = assay: Survival of normal cells (MTS); assay type: cell-based; conditions: 24 h
# Protocol: Pre-cultured RAW264.7 cells were allocated into groups C, CP1, and CP2. Group C received 100 μL of complete medium, while groups CP1 and CP2 were supplemented with 100 μL of complete medium containing CP1 and CP2, respectively, at final concentrations of 1.25, 2.5, 5, 10, 20, and 40 μg/mL. The cells were then incubated for 24 h before discarding the medium. Cell viability was assessed using the MTS method to identify non-toxic concentration ranges for subsequent experiments.
compound,measurement,setting,value
"LCGEC [tuna AOP, literature]",DPPH radical scavenging rate,"[1]; 1 mg/mL, tuna AOP",16.83%
same,"DPPH radical scavenging rate, IC50",[1]; tuna AOP,exceeded 10 mg/mL
"EVGK [duck blood AOP, literature]",DPPH radical scavenging rate,"[1]; 0.5 mg/mL, duck blood AOP",26.63%
same,transition metal chelation rate,"[2]; 0.5 mg/mL, duck blood AOP",16.35%
"OO [Peptide H2O2, hydrogen peroxide]",cell activity,"RAW264.7 cells [3]; RAW264.7, 200 μmol/L H2O2, 6 h",exceeded 90%
same,cell survival rate,"RAW264.7 cells [3]; RAW264.7, 250 μmol/L H2O2, 6 h",83.51 ± 6.15%
same,cell survival rate,"RAW264.7 cells [3]; RAW264.7, 300 μmol/L H2O2, 6 h",79.06 ± 3.21%
same,cell survival rate,"RAW264.7 cells [3]; RAW264.7, 350 μmol/L H2O2, 6 h",64.73 ± 0.99%
same,cell survival rate,"RAW264.7 cells [3]; RAW264.7, 400 μmol/L H2O2, 6 h",48.68 ± 5.48%
same,cell survival rate,"RAW264.7 cells [3]; RAW264.7, 450 μmol/L H2O2, 6 h",26.10 ± 1.65%
YFLWP,IC50 DPPH radical scavenging,[1]; yellow croaker AOP,1590 µg/mL
same,IC50 hydroxyl radical scavenging,[2]; yellow croaker AOP,2470 µg/mL
"QEAE [AOP from skipjack tuna protein extract, literature]",DPPH free-radical scavenging IC50,[1],1770 µg/mL
H-ANNGKQWAEVF-OH [CP1],reduction of free-radical scavenging rate,[4],38.64%
same,cell viability of normal cells versus group C,"RAW264.7 cells [5]; RAW264.7, 40.00 μg/mL",significantly lower than that of group C
same,cell viability of normal cells versus group C,"RAW264.7 cells [5]; RAW264.7, 1.25 to 20.00 μg/mL",did not show a significant difference compared to group C
"QAEP [AOP from skipjack tuna protein extract, literature]",DPPH free-radical scavenging IC50,[1],1110 µg/mL
H-QPGLPGPAG-OH [CP2],reduction of free-radical scavenging rate,[4],34.01%
same,cell viability of normal cells versus group C,"RAW264.7 cells [5]; RAW264.7, 40.00 μg/mL",significantly lower than that of group C
same,cell viability of normal cells versus group C,"RAW264.7 cells [5]; RAW264.7, 1.25 to 20.00 μg/mL",did not show a significant difference compared to group C
"YGPEP [sheepskin AOP, literature]",IC50 lipid peroxidation inhibition rate,[2]; sheepskin AOP,3940 µg/mL

# Reference: publication PMC11352039, “Isolation and Characterization of Antioxidant Peptides from Dairy Cow (Bos taurus) Placenta and Their Antioxidant Activities” (Antioxidants, 2024)
